Tests used:
[1] = test system: MGC-803 cells; assay: Cell cycle analysis by flow cytometry (PI staining); format: cell-based, human; conditions: 48 h
Method: For cell cycle analysis, cell cycle kit (Beyotime, China) was performed. MGC-803 cells were treated with compound A33 at different concentrations for 48 h. Untreated and treated cells were harvested, and then MGC-803 cells were washed three times using cold PBS. And then cells were fixed in 70% ethanol at −20 °C for 1 h. After fixation, cells were washed with cold PBS and stained with 0.5 ml of propidium iodide (PI) staining buffer, which contain […] RNase A and 50 µg/mL PI, at 37 °C for 30 min in the dark. Analyses were conducted on FACSVerse Flow Cytometer (Becton Dickinson). The experiments were repeated three times.
To verify whether cell cycle arrest leads to decrease cells proliferation, we used flow cytometric analysis to measure the effect of this compound on induction of cell cycle. […] In a word, this compound can induce cell cycle arrest at G2/M phase in a concentration-dependent manner, delaying cell cycle progression, thereby resulting in cell proliferation inhibition.
Figure 3. Cell cycle distribution induced by compound A33 was measured in MGC-803 cells. Cells were treated with compound A33 of 3, 6 and 9 μM for 48 h. Samples were analysed by flow cytometry and received results were analysed by modifit software. TEXT PRINTED IN THE PICTURE: A33: Dip G1:39.11% (3μM); Dip G2:29.46% (3μM); Dip S: 31.44% (3μM); Dip G1:35.72% (6μM); Dip G2:50.46% (6μM); Dip S: 13.82% (6μM); Dip G1:32.62% (9μM); Dip G2:55.13% (9μM); Dip S: 12.25% (9μM)

[2] = test system: MGC-803 cells; assay: Apoptosis assay, Annexin V-FITC/PI flow cytometry; format: cell-based, human; conditions: 48 h, untreated 4.27%
Method: For cell apoptosis analysis, we employed annexin V-FITC/PI apoptosis detection kit (BestBio, China). MGC-803 cells in logarithmic growth phase were treated with compound A33 at different concentrations for 48 h. Cells were collected in cold PBS by centrifugation for 5 min at 1000 g. And then cells were re-suspended at a buffer (1 × 10^6 cells/mL), stained with FITC-labeled annexin V and PI for 20 min in the dark and immediately analysed on FACSVerse Flow Cytometer (Becton Dickinson).
To determine whether compound A33 meditated inhibition of proliferation was related with apoptosis, MGC-803 cells was selected for examination. The Annexin V-FITC/PI apoptosis detection kit was used in cell apoptosis analysis. […] This is consistent with the fact that telomerase inhibitors can induce apoptosis and thus inhibit the unlimited proliferation of tumour cells.
Figure 4. Percentage of apoptotic cells was determined in MGC-803 cells by Annexin-V FITC/PI staining. MGC-803 cells were treated with increasing concentrations of compound A33 for 48 h and stained with Annexin-V FITC/PI. Apoptotic ratio increased, accompanied with the increase of concentration. TEXT PRINTED IN THE PICTURE: A33: Q1-UL(1.08%) (3μM); Q1-UR(9.20%) (3μM); Q1-LL(87.53%) (3μM); Q1-LR(2.19%) (3μM); Q1-UL(4.60%) (6μM); Q1-UR(29.31%) (6μM); Q1-LL(38.09%) (6μM); Q1-LR(28.00%) (6μM); Q1-UL(4.54%) (9μM); Q1-UR(49.18%) (9μM); Q1-LL(8.50%) (9μM); Q1-LR(37.78%) (9μM) DOUBTS OF THE COPYIST ABOUT THIS PICTURE: A33 3μM, Q1-UR: 9.20% partly covered by plot points, first digit 9 or 8 / A33 6μM, Q1-UR: 29.31% partly covered by plot points, digits not fully certain / A33 9μM, Q1-UR: 49.18% partly covered by plot points, digits not fully certain

[3] = test system: human normal liver cell (L-02); assay: Toxicity against human normal liver cells, MTT assay; format: cell-based; conditions: triplicate
Method: (§1) A375, MDA-MB-231, MGC-803, SMMC-7721, SGC-7901 and L-02 cell lines were cultured in DMEM medium supplemented with 10% (V/V) heat-inactivated fetal bovine serum (FBS) (Biological Industries, Israel) along with 100 U/mL penicillin and […] streptomycin (Beyotime, China). Cells were grown in a humidified 5% CO2 atmosphere at 37 °C and maintained in a logarithmic growth phase for all experiments.
(§2) 2.5. Anticancer assay[23]
In order to determine the selective cytotoxicity of selected compounds, we subsequently conducted a proliferative inhibition assay with human normal liver cell (L-02). […] Therefore, in combination with the above points, it is quite meaningful to further explore the mechanisms of this compound.

[4] = biological target: T1, telomerase (Homo sapiens, UniProt O14746); assay: Telomerase activity assay using MGC-803 cells extract; format: biochemical; conditions: mean ± SD
T1 construct: assayed for telomerase activity using MGC-803 cells extract; endogenous in cells; host or cells: MGC-803 cell extract

[5] = test system: SGC-7901 (human gastric cancer cell); assay: In vitro anticancer (antiproliferative) MTT assay, SGC-7901; format: cell-based; conditions: Homo sapiens, SGC-7901, mean ± SD of three experiments in triplicate
Method: as §1, §2

[6] = test system: MGC-803 (human gastric cancer cell); assay: In vitro anticancer (antiproliferative) MTT assay, MGC-803; format: cell-based; conditions: Homo sapiens, MGC-803, mean ± SD of three experiments in triplicate
Method: as §1, §2

[7] = test system: NOP10; assay: Western blotting of NOP10 expression in MGC-803 cells; format: cell-based, human; conditions: MGC-803 cells, 3, 6, 9 µM, 48 h
Method: (§3) Human MGC-803 cells were lysed with RIPA lysis buffer (Beyotime, China). Whole extracts were prepared, and protein concentration was detected using a BCA protein assay kit (Beyotime, China). The protein samples were separated by SDS-PAGE and blotted onto a PVDF membrane (Millipore Corp, Billerica, MA). After blockade of non-specific protein binding, […] blots were incubated at 4 °C for 8 h with primary antibodies. After extensive washing in TBS/Tween-20, the membranes were incubated at room temperature for 1 h with secondary antibodies. After washed in TBS/Tween-20, the blots were processed with distilled water for detection of antigen using the enhanced chemiluminescence system. Proteins were visualised with ECL-chemiluminescent kit (ECL-plus, Thermo Scientific).
(§4) Dyskerin-NOP10-NHP2, trimer proteins are the core components of telomerase, playing a key role in the stabilisation, activation and assembly of telomerase, and the loss of dyskerin function can influence telomerase activity. Dyskerin over-expression associated with a variety of tumour types has been reported. […] Meanwhile, NHP2[39] and NOP10[40], as the important components of dyskerin-NHP2-NOP10 trimer, had also been assessed together. […]
(§5) Figure 5. […] The proteins expression of Dyskerin, NOP10 and NHP2 were analysed by Western blotting. The results are expressed as relative expression against control expression. n = 3. […]

[8] = test system: dyskerin; assay: Western blotting of dyskerin expression in MGC-803 cells; format: cell-based, human; conditions: MGC-803 cells, 3, 6, 9 µM, 48 h
Method: as §3, §4, §5

[9] = test system: NHP2; assay: Western blotting of NHP2 expression in MGC-803 cells; format: cell-based, human; conditions: MGC-803 cells, 3, 6, 9 µM, 48 h
Method: as §3, §4, §5

[10] = test system: MDA-MB-231 (human breast cancer cell); assay: In vitro anticancer (antiproliferative) MTT assay, MDA-MB-231; format: cell-based; conditions: Homo sapiens, MDA-MB-231, mean ± SD of three experiments in triplicate
Method: as §1, §2

[11] = test system: A375 (human melanoma cell); assay: In vitro anticancer (antiproliferative) MTT assay, A375; format: cell-based; conditions: Homo sapiens, A-375, mean ± SD of three experiments in triplicate
Method: as §1, §2

[12] = test system: SMMC-7721 (human hepatoma cell); assay: In vitro anticancer (antiproliferative) MTT assay, SMMC-7721; format: cell-based; conditions: Homo sapiens, SMMC-7721, mean ± SD of three experiments in triplicate
Method: as §1, §2

T1 sequence (O14746 whole entry): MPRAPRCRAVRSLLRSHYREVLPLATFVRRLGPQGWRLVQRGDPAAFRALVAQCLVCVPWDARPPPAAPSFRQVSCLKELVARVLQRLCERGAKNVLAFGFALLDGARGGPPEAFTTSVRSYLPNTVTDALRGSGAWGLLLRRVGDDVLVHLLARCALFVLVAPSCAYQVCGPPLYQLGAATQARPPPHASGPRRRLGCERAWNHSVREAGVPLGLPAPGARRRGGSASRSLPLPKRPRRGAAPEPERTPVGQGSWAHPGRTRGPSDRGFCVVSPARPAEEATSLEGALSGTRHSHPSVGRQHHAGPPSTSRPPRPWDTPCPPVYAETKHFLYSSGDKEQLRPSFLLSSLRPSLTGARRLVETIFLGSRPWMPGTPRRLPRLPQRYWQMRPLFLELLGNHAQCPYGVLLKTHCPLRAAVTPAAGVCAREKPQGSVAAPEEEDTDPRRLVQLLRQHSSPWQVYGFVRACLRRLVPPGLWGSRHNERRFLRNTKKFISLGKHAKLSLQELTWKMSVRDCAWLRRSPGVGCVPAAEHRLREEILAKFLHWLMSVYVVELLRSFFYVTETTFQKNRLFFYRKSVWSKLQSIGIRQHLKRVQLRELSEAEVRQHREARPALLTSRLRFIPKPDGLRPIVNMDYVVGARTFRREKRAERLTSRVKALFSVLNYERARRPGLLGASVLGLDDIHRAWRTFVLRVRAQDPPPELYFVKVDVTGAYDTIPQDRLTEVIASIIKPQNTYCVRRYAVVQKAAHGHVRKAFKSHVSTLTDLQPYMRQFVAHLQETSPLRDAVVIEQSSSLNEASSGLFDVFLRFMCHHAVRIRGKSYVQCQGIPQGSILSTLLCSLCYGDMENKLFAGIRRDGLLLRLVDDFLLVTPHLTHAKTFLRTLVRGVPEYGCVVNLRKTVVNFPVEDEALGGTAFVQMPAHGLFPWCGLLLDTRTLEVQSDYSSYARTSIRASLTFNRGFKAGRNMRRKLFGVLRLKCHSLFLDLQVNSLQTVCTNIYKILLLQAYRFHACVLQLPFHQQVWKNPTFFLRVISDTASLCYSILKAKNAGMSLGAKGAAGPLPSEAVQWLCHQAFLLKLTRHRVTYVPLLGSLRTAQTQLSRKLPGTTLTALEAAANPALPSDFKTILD
T1 sequence (O60832 2-514 partner limits assumed): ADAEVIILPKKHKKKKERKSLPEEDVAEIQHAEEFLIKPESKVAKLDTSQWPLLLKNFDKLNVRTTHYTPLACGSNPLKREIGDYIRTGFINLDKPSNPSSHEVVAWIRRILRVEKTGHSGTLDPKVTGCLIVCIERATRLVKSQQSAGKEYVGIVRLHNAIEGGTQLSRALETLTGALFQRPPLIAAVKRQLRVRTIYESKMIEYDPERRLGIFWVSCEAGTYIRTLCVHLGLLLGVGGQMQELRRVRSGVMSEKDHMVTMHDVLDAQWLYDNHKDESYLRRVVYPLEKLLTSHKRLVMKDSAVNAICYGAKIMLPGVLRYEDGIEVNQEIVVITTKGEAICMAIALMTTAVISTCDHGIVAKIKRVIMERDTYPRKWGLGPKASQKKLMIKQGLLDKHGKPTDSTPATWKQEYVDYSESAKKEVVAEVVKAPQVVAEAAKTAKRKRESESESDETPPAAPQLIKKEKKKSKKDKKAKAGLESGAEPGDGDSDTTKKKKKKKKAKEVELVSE
T1 sequence (Q9NPE3 whole entry partner): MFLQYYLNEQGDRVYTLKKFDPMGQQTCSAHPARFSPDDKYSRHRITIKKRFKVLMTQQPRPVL
T1 sequence (Q9NX24 whole entry partner): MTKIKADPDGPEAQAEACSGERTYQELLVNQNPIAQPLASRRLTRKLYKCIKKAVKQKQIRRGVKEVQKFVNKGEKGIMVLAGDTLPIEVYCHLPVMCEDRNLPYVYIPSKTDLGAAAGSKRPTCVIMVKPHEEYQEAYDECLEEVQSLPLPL
T1 sequence (Q9NY12 whole entry partner): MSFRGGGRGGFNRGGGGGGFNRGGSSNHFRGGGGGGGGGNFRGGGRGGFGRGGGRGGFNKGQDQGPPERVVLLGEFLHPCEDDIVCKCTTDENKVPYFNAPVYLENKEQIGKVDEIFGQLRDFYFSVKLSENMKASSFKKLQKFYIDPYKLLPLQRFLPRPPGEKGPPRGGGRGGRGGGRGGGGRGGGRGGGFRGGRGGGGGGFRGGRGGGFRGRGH

COc1cc(OC)c2c(=O)c(OCC(=O)Nc3nnc(/C=C/c4ccccc4)o3)c(-c3cc(OC)c(OC)c(OC)c3)oc2c1 [A33, (E)-2–(5,7-dimethoxy-4-oxo-2–(3,4,5-trimethoxyphenyl)-4H-chromen-3-yloxy)-N-(5-styryl-1,3,4-oxadiazol-2-yl)acetamide]
G0/G1 phase distribution (Dip G1) ([1]; 3 μM): 39.11% | G2/M phase distribution (Dip G2) ([1]; 3 μM): 29.46% | S phase distribution (Dip S) ([1]; 3 μM): 31.44% | G0/G1 phase distribution (Dip G1) ([1]; 6 μM): 35.72% | G2/M phase distribution (Dip G2) ([1]; 6 μM): 50.46% | S phase distribution (Dip S) ([1]; 6 μM): 13.82% | G0/G1 phase distribution (Dip G1) ([1]; 9 μM): 32.62% | G2/M phase distribution (Dip G2) ([1]; 9 μM): 55.13% | S phase distribution (Dip S) ([1]; 9 μM): 12.25% | Increase of the G2/M phase distribution versus untreated ([1]; increasing concentrations (3, 6, 9 µM), from 9.76 to 55.13%): 45.37% | Percentage of AnnexinV-FITC binding MGC-803 cells ([2]; 3 μM (first of increasing concentrations, Figure 4)): 11.39% | Percentage of AnnexinV-FITC binding MGC-803 cells ([2]; 6 μM (second of increasing concentrations, Figure 4)): 57.31% | Percentage of AnnexinV-FITC binding MGC-803 cells ([2]; 9 μM (third of increasing concentrations, Figure 4)): 86.96% | IC50 [3]: 2.21 ± 0.17 mM | IC50 [4]: 440 ± 90 nM | IC50 [5]: 10 ± 0.51 µM | IC50 [6]: 8.76 ± 0.25 µM | Expression of NOP10 [7]: lower level than control group | Expression level of dyskerin protein [8]: reduced in a concentration-dependent manner | Expression of NHP2 [9]: lower level than control group | IC50 [10]: 9.89 ± 0.44 µM | IC50 [11]: 11.2 ± 0.69 µM | IC50 [12]: 9.67 ± 0.82 µM
